Results on one compound are retold here after patent publication US5932575A, “Cardiac diseases improving agents” (Kureha Chemical Industry Co., Ltd., priority 1997, dated 1999).

Broadly, the inhibition is the percentage by which the read-out fell short of the control.

The target of assay [1] is T1, type 2 (AT2) receptor (Bos taurus, UniProt G5E6F7).
T1 construct: Receptor: Derived from bovine cerebellum; from tissue; host or cells: bovine cerebellum
T1 sequence (G5E6F7 1-362): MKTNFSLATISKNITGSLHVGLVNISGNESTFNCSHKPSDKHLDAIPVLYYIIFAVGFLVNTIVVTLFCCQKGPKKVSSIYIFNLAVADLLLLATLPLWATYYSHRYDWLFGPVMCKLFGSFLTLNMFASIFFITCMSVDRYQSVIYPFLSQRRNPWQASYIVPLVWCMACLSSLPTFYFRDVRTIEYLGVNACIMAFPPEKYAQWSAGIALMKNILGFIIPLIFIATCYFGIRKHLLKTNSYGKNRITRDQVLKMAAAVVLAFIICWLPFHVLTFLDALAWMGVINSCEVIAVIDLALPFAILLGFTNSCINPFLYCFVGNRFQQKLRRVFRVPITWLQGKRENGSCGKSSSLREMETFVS
Description: Affinity to angiotensin II type 2 receptor (binding assay). The arrangement: species or system bovine. To be noted: 37° C., one hour. The method, then:
Practically, determination of total binding of each compound was carried out as follows. A mixture of 0.025 ml of a predetermined concentration of test compound prepared by dissolving in DMSO, dilution with a buffer attached to the drug discovery system to 2-fold solution, 0.025 ml of a tracer and 0.2 ml of a receptor to make total volume of 0.25 ml was incubated at room temperature for three hours for type 1 angiotensin II (AT1) receptor or at 37° C. for one hour for type 2 (AT2) receptor. The reaction mixture was filtered under suction with CF/C filter paper for AT1 and CF/B filter paper for AT2. The used filter paper having the combination of the tracer and the receptor was determined with a γ-well counter (ARC-500, Aloka). Non-specific binding was determined with a similar manner by adding a large excess amount of displacer. The specific binding of test compound at a predetermined concentration was obtained by subtracting non-specific binding from respective total binding. In AT1, and AT2, a predetermined concentrations of test compound and a control compound were used to give the inhibitory rate, IC50 value of 50% inhibition, or binding inhibitory % at 100 μM, for binding of a radioactive ligand (tracer) and the receptor.
Receptor: Derived from bovine cerebellum
Tracer: ^125 ITyr^4angiotensin II
Control compound: Angiotensin II (human)
(Displacer): Angiotensin II (human)

Assay [2] deals with rats with renal diseases. Description: Hypotensive action in rats with experimental renal disease (tail cuff). It counts as in vivo, rats (female Sprague-Dawley). As to the method:
The compounds of the present invention and a comparative compound, Dup 753, were orally administered by gavage to rats with renal diseases and hypotensive action was determined. Rats with experimental renal disease were prepared with conventional method by ligating branch of renal artery. That is, female Sprague-Dawley rats were anesthetized, left renal hilus was exposed and three of four second branches of renal artery were ligated remaining one branch. One week later, further right renal hilus including artery, vein and ureter was ligated to reduce renal function up to about 1/8 to those of normal animals. Rats were divided to make eight animals in one group, and 20 mg/kg of one test compound and water as a control were administered to each group. After two days, systolic blood pressure was determined with a blood pressure determination apparatus using tail cuff method (UR5000, Ueda Manufacturing Co., Ltd.).

Assay [3] has as its system angiotensin II receptor. Particulars: cited from earlier work.

Regarding `CCCCc1nc(Cl)c(CO)n1Cc1ccc(-c2ccccc2-c2nnn[nH]2)cc1` [DuP753, 2-butyl-4-chloro-5-(hydroxymethyl)-1-[[2'-(1H-tetrazol-5-yl)biphenyl-4-yl]methyl]imidazole], the inhibition at 100 µM in assay [1] is 0%. The “Blood pressure (average systolic)” value in assay [2] (20 mg/kg oral gavage, after two days, control (water) 210) stood at 130 mmHg. Further, the “effect on blood pressure (in words)” value in assay [2] (20 mg/kg oral, compared with control group) is recorded as “marked hypotension”. For the same compound, the “antagonistic action to angiotensin II receptor (in words)” value in assay [3] is given as “potent antagonistic action to angiotensin II receptor”.
